Molecules are shown by their SMILES.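 Values below derive from 48-hour exposures of cells grown in 96-well plates, with endpoints linearly interpolated between the two concentrations bracketing the appropriate inhibition level. Abbreviation: GI50, concentration required for 50% inhibition of growth.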 Active and inactive are the calls of the source. Rule as the data show it: active = GI50 up to about 1.1 µM and inactive = higher.

Test systems include 786-0; CAKI-1; COLO 205; DU-145; IGROV-1; MCF7; MDA-MB-231; MDA-MB-435; Malme-3M; OVCAR-5; PC-3; RPMI-8226; RXF 393; SK-MEL-28; SK-MEL-2; SK-OV-3; SN12C; SNB-75; TK-10.
Assay in all cases: inhibition of tumour cell growth, NCI panel, 48 h

Take `C/C(=N/NC(=S)Nc1ccccc1Cl)c1ccccn1`: the GI50 in the assay with 786-0 was 0.0889 µM (active); with CAKI-1 it was 0.0675 µM (active); with COLO 205, < 0.0162 µM (active); with DU-145 it was 1.06 µM (active); in the assay with IGROV-1, < 0.0137 µM (active); in the assay on MCF7 it was < 0.0119 µM (active). For the same compound, the GI50 is < 0.0164 µM (active) in the assay on MDA-MB-231; 0.665 µM (active) with MDA-MB-435; 0.429 µM (active) in the assay with Malme-3M; < 0.0211 µM (active) in the assay with OVCAR-5; < 0.0143 µM (active) in the assay with PC-3; < 0.0149 µM (active) in the assay with RPMI-8226. Moreover, the GI50 in the assay on RXF 393 is 1.41 µM (inactive); in the assay on SK-MEL-28, 4.06 µM (inactive); in the assay with SK-MEL-2, 1.98 µM (inactive); in the assay with SK-OV-3, 0.043 µM (active); in the assay with SN12C, 0.129 µM (active); in the assay on SNB-75, 8.73 µM (inactive). Moreover, the GI50 in the assay with TK-10 was 0.113 µM (active).
For `N#Cc1nc(C#N)n(C(=O)c2ccccc2)c1NC(=O)c1ccccc1`, the GI50 in the assay on 786-0, in the assay with CAKI-1, with COLO 205, in the assay with DU-145, in the assay on IGROV-1 and in the assay with MCF7 was > 100 µM (inactive) in each case. In addition, the GI50 in the assay on MDA-MB-231, in the assay with MDA-MB-435, with Malme-3M, in the assay with OVCAR-5, in the assay with PC-3 and in the assay on RPMI-8226 was > 100 µM (inactive) throughout. The GI50 with RXF 393, in the assay on SK-MEL-28, in the assay on SK-MEL-2, with SK-OV-3, in the assay with SN12C and in the assay on SNB-75 was > 100 µM (inactive) throughout. Also, in the assay with TK-10, the GI50 is > 100 µM (inactive).
On to `N#CC1=C(N)OC2=C(CCCc3ccc([N+](=O)[O-])cc32)C1c1ccc(Cl)cc1` (stereo not given), for which the GI50 in the assay with 786-0 is 4.84 µM (inactive); in the assay with CAKI-1, 4.11 µM (inactive); with COLO 205 it was 5.35 µM (inactive); with DU-145, 8.51 µM (inactive); in the assay on IGROV-1, 8.71 µM (inactive); in the assay with MCF7 it was 4.03 µM (inactive). For the same compound, the GI50 in the assay on MDA-MB-231 was 7.91 µM (inactive); in the assay on MDA-MB-435 it was 5.92 µM (inactive); in the assay with Malme-3M, 11.3 µM (inactive); with OVCAR-5 it was 16.6 µM (inactive); in the assay on PC-3, 3.94 µM (inactive); in the assay on RPMI-8226, 4.33 µM (inactive). Moreover, the GI50 in the assay with RXF 393 is 4.68 µM (inactive); with SK-MEL-28, 25.8 µM (inactive); with SK-MEL-2 it was 13.4 µM (inactive); in the assay on SK-OV-3, 13.7 µM (inactive); with SN12C, 2.74 µM (inactive); in the assay on SNB-75 it was 11.8 µM (inactive). Besides, the GI50 with TK-10 was 10.6 µM (inactive).
`O=C(O[C@H]1CCN2C[C@H]3C[C@H](CN4C(=O)CCC[C@H]34)[C@@H]2C1)c1ccc(O)cc1`: the GI50 in the assay on 786-0, with CAKI-1, with COLO 205, with DU-145, in the assay on IGROV-1 and in the assay on MCF7 was > 100 µM (inactive) in each case. For the same compound, the GI50 in the assay on MDA-MB-231, in the assay on MDA-MB-435, in the assay on Malme-3M, with OVCAR-5, with PC-3 and in the assay with RPMI-8226 was > 100 µM (inactive) throughout. For the same compound, the GI50 in the assay with RXF 393, in the assay with SK-MEL-28, in the assay on SK-MEL-2, in the assay on SK-OV-3, with SN12C and in the assay on SNB-75 was > 100 µM (inactive) throughout. Moreover, the GI50 in the assay on TK-10 is > 100 µM (inactive).
For the compound `CCCNC(=O)N1CC(CN2CCN(c3ccccc3)CC2)O/C1=N/C(=O)Nc1ccccc1` (stereo not given), the GI50 with 786-0 was > 100 µM (inactive); in the assay on CAKI-1, > 100 µM (inactive); in the assay with COLO 205, 33.3 µM (inactive); with DU-145, 57.9 µM (inactive); with IGROV-1, > 100 µM (inactive); in the assay on MCF7, > 100 µM (inactive). For the same compound, the GI50 in the assay on MDA-MB-231 is > 100 µM (inactive); in the assay with MDA-MB-435, 84.5 µM (inactive); in the assay on Malme-3M it was 97.1 µM (inactive); in the assay on OVCAR-5, > 100 µM (inactive); in the assay with PC-3, 45.5 µM (inactive); in the assay with RPMI-8226 it was > 100 µM (inactive). In addition, the GI50 in the assay with RXF 393 is 43.3 µM (inactive); in the assay on SK-MEL-28, > 100 µM (inactive); in the assay with SK-MEL-2 it was 45.3 µM (inactive); in the assay with SK-OV-3, > 100 µM (inactive); with SN12C, > 100 µM (inactive); in the assay with SNB-75, 76.2 µM (inactive). In the assay on TK-10, the GI50 is 82.4 µM (inactive).
For `[N-]=[N+]=Nc1nc2ccccc2c(N=[N+]=[N-])c1Cl`, the GI50 with 786-0 was 56.2 µM (inactive); in the assay with CAKI-1, > 100 µM (inactive); with COLO 205, > 100 µM (inactive); in the assay on DU-145 it was > 100 µM (inactive); in the assay on IGROV-1, > 100 µM (inactive); in the assay with MCF7, > 100 µM (inactive). Further, the GI50 in the assay with MDA-MB-231, in the assay on MDA-MB-435, with Malme-3M, in the assay with OVCAR-5, in the assay with PC-3 and with RPMI-8226 was > 100 µM (inactive) each time. In addition, the GI50 in the assay with RXF 393 is 25.6 µM (inactive); in the assay on SK-MEL-28 it was > 100 µM (inactive); in the assay on SK-MEL-2, > 100 µM (inactive); with SK-OV-3 it was 92 µM (inactive); in the assay on SN12C, > 100 µM (inactive); in the assay on SNB-75, 24.9 µM (inactive). Further, the GI50 in the assay with TK-10 was > 100 µM (inactive).
For the compound `CC(=O)C1=C(C)N(c2ccc(C)cc2)C2(O)C3=C(C(=O)c4ccccc4C3=O)C(O)=CC12Cl` (stereo not given), the GI50 is 25.4 µM (inactive) in the assay with 786-0; 10.4 µM (inactive) in the assay on CAKI-1; 27.5 µM (inactive) in the assay with COLO 205; 24.7 µM (inactive) with DU-145; 11.1 µM (inactive) in the assay with IGROV-1; 12.1 µM (inactive) with MCF7. Also, the GI50 in the assay on MDA-MB-231 is 31.8 µM (inactive); with MDA-MB-435 it was 3.79 µM (inactive); in the assay on Malme-3M, 10.5 µM (inactive); in the assay with OVCAR-5, 25.5 µM (inactive); with PC-3, 8.85 µM (inactive); in the assay with RPMI-8226 it was 6.5 µM (inactive). Besides, the GI50 in the assay with RXF 393 is 9.73 µM (inactive); with SK-MEL-28 it was 10.2 µM (inactive); in the assay on SK-MEL-2, 8.53 µM (inactive); with SK-OV-3, 55.1 µM (inactive); in the assay on SN12C, 17 µM (inactive); with SNB-75, 21.9 µM (inactive). Moreover, the GI50 with TK-10 is 28.4 µM (inactive).
Regarding `CC1CNC(c2cccc(OCc3ccc(COc4cccc(C5=NC(C)CN5)c4)cc3)c2)=N1` (stereo not given), the GI50 with 786-0 was 34.1 µM (inactive); in the assay with CAKI-1, > 100 µM (inactive); in the assay on COLO 205, 17 µM (inactive); in the assay on DU-145 it was 50.8 µM (inactive); in the assay with IGROV-1, > 100 µM (inactive); in the assay with MCF7, 28.2 µM (inactive). The GI50 is 42.3 µM (inactive) with MDA-MB-231; 45.5 µM (inactive) in the assay with MDA-MB-435; 58.5 µM (inactive) with Malme-3M; 40.1 µM (inactive) in the assay on OVCAR-5; 28.9 µM (inactive) with PC-3; 15.6 µM (inactive) in the assay on RPMI-8226. The GI50 was 40.7 µM (inactive) with RXF 393; 61.7 µM (inactive) with SK-MEL-28; 20.8 µM (inactive) in the assay with SK-MEL-2; > 100 µM (inactive) with SK-OV-3; 19.5 µM (inactive) in the assay on SN12C; 22.2 µM (inactive) in the assay on SNB-75. For the same compound, the GI50 in the assay with TK-10 is 27.1 µM (inactive).
With `CCCSc1ccc2[nH]c(N3C(=O)/C(=C/c4ccc(SC)cc4)N=C3c3ccccc3)cc2c1`, the GI50 was 26.2 µM (inactive) in the assay with 786-0; 38.8 µM (inactive) in the assay on CAKI-1; 14.2 µM (inactive) with COLO 205; > 50 µM (inactive) in the assay with DU-145; 29.2 µM (inactive) in the assay on IGROV-1; 14.1 µM (inactive) in the assay with MCF7. For the same compound, the GI50 is > 50 µM (inactive) with MDA-MB-231; 5.05 µM (inactive) with MDA-MB-435; 40.6 µM (inactive) with Malme-3M; > 50 µM (inactive) in the assay on OVCAR-5; 25.9 µM (inactive) in the assay on PC-3; 0.242 µM (active) with RPMI-8226. The GI50 was 19.9 µM (inactive) in the assay with RXF 393; 34.3 µM (inactive) with SK-MEL-28; 24.4 µM (inactive) in the assay with SK-MEL-2; 41.5 µM (inactive) in the assay with SK-OV-3; > 40.5 µM (inactive) with SN12C; > 34.4 µM (inactive) in the assay on SNB-75. The GI50 with TK-10 is 29 µM (inactive).
On to `CCOC(=O)NN(C(=O)OCC)c1c(C)cc(C)cc1C`, for which the GI50 is > 100 µM (inactive) in the assay with 786-0; > 100 µM (inactive) with CAKI-1; > 100 µM (inactive) in the assay with COLO 205; > 100 µM (inactive) with DU-145; 64.4 µM (inactive) in the assay on IGROV-1; > 100 µM (inactive) with MCF7. Also, the GI50 in the assay with MDA-MB-231, in the assay on MDA-MB-435, in the assay with Malme-3M, in the assay on OVCAR-5, in the assay with PC-3 and in the assay on RPMI-8226 was > 100 µM (inactive) in each case. Besides, the GI50 in the assay with RXF 393 is 21 µM (inactive); in the assay with SK-MEL-28, > 100 µM (inactive); in the assay on SK-MEL-2 it was > 100 µM (inactive); in the assay on SK-OV-3, > 100 µM (inactive); in the assay with SN12C it was > 100 µM (inactive); in the assay with SNB-75, > 100 µM (inactive). For the same compound, in the assay with TK-10, the GI50 was > 100 µM (inactive).

Source of the values: ChEMBL document CHEMBL1201862, “PubChem BioAssay data set” (2004).
